Assay results as given in patent US7435837B2, “Dihydrobenzofuranyl alkanamine derivatives and methods for using same” (Wyeth, priority 2003, dated 2008).
Where two headings read alike, the source gives them in different places.

Experiments:
human 5-HT2C receptor = molecular target: T1, human 5-HT2C receptor (Homo sapiens, UniProt P28335); test: 5-HT2C receptor-stimulated calcium mobilization (FLIPR) in CHO cells; type: cell-based; settings: for Emax: CHO; for EC50: calcium mobilization, CHO cells stably expressing human 5-HT2C, read-out: 5-HT2C Function EC50;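 on all read-outs here: Fluo-3-AM fluorescence read on FLIPR every 1 s, agonist added after 10 baseline reads, response taken as peak minus lowest raw fluorescence count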
T1 sequence (P28335 33-458): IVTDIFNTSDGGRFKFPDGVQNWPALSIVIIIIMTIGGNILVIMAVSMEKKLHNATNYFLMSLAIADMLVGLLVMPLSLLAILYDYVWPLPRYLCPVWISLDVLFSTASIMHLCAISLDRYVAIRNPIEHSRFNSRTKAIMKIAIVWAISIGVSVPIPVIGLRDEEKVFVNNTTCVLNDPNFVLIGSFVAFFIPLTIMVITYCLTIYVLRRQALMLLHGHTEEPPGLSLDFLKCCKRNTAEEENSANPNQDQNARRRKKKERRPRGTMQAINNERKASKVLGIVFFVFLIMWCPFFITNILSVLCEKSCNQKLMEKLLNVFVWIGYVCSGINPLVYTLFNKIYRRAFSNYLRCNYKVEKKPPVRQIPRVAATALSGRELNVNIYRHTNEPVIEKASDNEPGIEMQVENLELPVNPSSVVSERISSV

[1] = molecular target: T2, human 5-hydroxytryptamine-2C (h5-HT2C) receptor (Homo sapiens, UniProt P28335); test: [125I]DOI binding to membranes of CHO cells expressing the human 5-HT2C receptor; settings: [125I]DOI radioligand, CHO cell membranes, room temperature 60 min; read-out: 5-HT2C Affinity Ki
T2 construct: expressed in transfected cells; host or cells: CHO (Chinese Hamster Ovary) cells; membranes
T2 sequence (P28335 33-458): T1 sequence (P28335 33-458)

[2] = percentage of the response observed with a maximally effective concentration of 5-HT, read-out: 5-HT2C Function Emax (%)
[3] = percentage of the response observed with a maximally effective concentration of 5-HT

SMILES | Emax (human 5-HT2C receptor; [2]) | EC50 (human 5-HT2C receptor) | Ki [1] | 5-HT2C Function Emax (%) (human 5-HT2C receptor; [3]) | Emax (human 5-HT2C receptor; read-out: 5-HT2C Function Emax (%), percentage of the response observed with a maximally effective concentration of 5-HT)
NCC1Cc2cc(C(F)(F)F)cc(-c3ccc(F)cc3F)c2O1 (racemic) [Example 332, (±)-{[7-(2,4-difluorophenyl)-5-(trifluoromethyl)-2,3-dihydro-1-benzofuran-2-yl]methyl}amine] | 80% | 111 nM | 37 nM |  | 
NCC1Cc2cc(Cl)cc(-c3ccc(Cl)cc3Cl)c2O1 (single isomer, unassigned; (+)) [Example 253, (+)-{[5-chloro-7-(2,4-dichlorophenyl)-2,3-dihydro-1-benzofuran-2-yl]methyl}amine] |  | 251 nM | 8.6 nM | 90% | 
CNCC1Cc2cc(F)cc(-c3cc(C)ccc3C)c2O1 (racemic) [Example 452, (±)-{[7-(2,5-dimethylphenyl)-5-fluoro-2,3-dihydro-1-benzofuran-2-yl]methyl}methylamine] | 80% | 153 nM | 24 nM |  | 
COc1ccc(-c2cc(F)cc3c2OC(CN)C3)cc1 (racemic) [Example 202, (±)-{[5-fluoro-7-(4-methoxyphenyl)-2,3-dihydro-1-benzofuran-2-yl]methyl}amine] | 80% | 105 nM | 11 nM |  | 
CNCC1Cc2cccc(-c3ccccc3OC)c2O1 (racemic) [Example 413, (±)-[(N-methyl-1-[7-(2-methoxyphenyl)-2,3-dihydro-1-benzofuran-2-yl]methanamine] | 90% | 8 nM | 21 nM |  | 
NCC1Cc2cccc(-c3ccc(F)cc3)c2O1 (racemic) [Example 73, (±)-1-[7-(4-fluorophenyl)-2,3-dihydro-1-benzofuran-2-yl]methanamine] | 100% | 41 nM | 5 nM |  | 
CC(C)c1ccccc1-c1cccc2c1OC(CN)C2 (single isomer, unassigned; (+)) [Example 62, (+)-[7-(2-isopropylphenyl)-2,3-dihydro-1-benzofuran-2-yl]methylamine] | 70% | 130 nM | 40 nM |  | 
NCC1Cc2cccc(-c3cc(Cl)ccc3Cl)c2O1 (single isomer, unassigned; (+)) [Example 164, (+)-{[7-(2,5-dichlorophenyl)-2,3-dihydro-1-benzofuran-2-yl]methyl}amine] |  | 0.3 nM | 0.28 nM | 100% | 
NCC1Cc2cc(Cl)cc(-c3cc(Cl)ccc3Cl)c2O1 (racemic) [Example 256, (±)-{[5-chloro-7-(2,5-dichlorophenyl)-2,3-dihydro-1-benzofuran-2-yl]methyl}amine] | 100% | 4 nM | 0.74 nM |  | 
Cc1cccc(C)c1-c1cccc2c1OC(CN)C2 (single isomer, unassigned; (-)) [Example 57, (−)-1-[7-(2,6-dimethylphenyl)-2,3-dihydro-1-benzofuran-2-yl]methanamine] | 80% | 12 nM | 1 nM |  | 
CNCC1Cc2cc(F)cc(-c3ccccc3OC)c2O1 (racemic) [Example 443, (±)-{[5-fluoro-7-(2-methoxyphenyl)-2,3-dihydro-1-benzofuran-2-yl]methyl}methylamine] | 90% | 5 nM | 4.8 nM |  | 
CNCC1Cc2cc(F)cc(-c3cc(F)ccc3F)c2O1 (racemic) [Example 448, (±)-{[7-(2,5-difluorophenyl)-5-fluoro-2,3-dihydro-1-benzofuran-2-yl]methyl}methylamine] | 70% | 78 nM | 7 nM |  | 
NCC1Cc2cccc(C3CCCC3)c2O1 (racemic) [Example 8, (±)-(7-cyclopentyl-2,3-dihydro-1-benzofuran-2-yl)methylamine] | 85% | 188 nM | 9 nM |  | 
NCC1Cc2cc(Cl)cc(-c3c(Cl)cccc3Cl)c2O1 (racemic) [Example 263, (±)-{[5-chloro-7-(2,6-dichlorophenyl)-2,3-dihydro-1-benzofuran-2-yl]methyl}amine] | 100% | 0.8 nM | 1.8 nM |  | 
NCC1Cc2cc(F)cc(-c3ccccc3C(F)(F)F)c2O1 (racemic) [Example 108, (±)-1-{5-fluoro-7-[2-(trifluoromethyl)phenyl]-2,3-dihydro-1-benzofuran-2-yl}methanamine] | 95% | 39 nM | 4 nM |  | 
Cc1cc2c(c(-c3ccc(Cl)cc3Cl)c1)OC(CN)C2 (single isomer, unassigned; (-)) [Example 298, (−)-{[7-(2,4-dichlorophenyl)-5-methyl-2,3-dihydro-1-benzofuran-2-yl]methyl}amine] | 90% | 30 nM | 11 nM |  | 

SMILES | Emax (human 5-HT2C receptor; [2]) | EC50 (human 5-HT2C receptor) | Ki [1] | 5-HT2C Function Emax (%) (human 5-HT2C receptor; [3]) | Emax (human 5-HT2C receptor; read-out: 5-HT2C Function Emax (%), percentage of the response observed with a maximally effective concentration of 5-HT)
CNCC1Cc2cc(F)cc(-c3cc(Cl)ccc3OC)c2O1 (racemic) [Example 458, (±)-{[7-(5-chloro-2-methoxyphenyl)-5-fluoro-2,3-dihydro-1-benzofuran-2-yl]methyl}methylamine] | 80% | 212 nM | 17 nM |  | 
NCC1Cc2cc(C(F)(F)F)cc(-c3ccoc3)c2O1 (racemic) [Example 341, (±)-{[7-(3-furyl)-5-(trifluoromethyl)-2,3-dihydro-1-benzofuran-2-yl]methyl}amine] | 90% | 231 nM | 36 nM |  | 
CC(C)(C)c1cc(Cl)cc2c1OC(CN)C2 (single isomer, unassigned; (-)) [Example 28, (−)-1-(7-tert-butyl-5-chloro-2,3-dihydro-1-benzofuran-2-yl)methanamine] | 90% | 77 nM | 16 nM |  | 
NCC1Cc2cc(Cl)cc(-c3cc(F)ccc3F)c2O1 (racemic) [Example 255, (±)-{[5-chloro-7-(2,5-difluorophenyl)-2,3-dihydro-1-benzofuran-2-yl]methyl}amine] | 90% | 79 nM | 5 nM |  | 
NCC1Cc2cccc(-c3ccsc3)c2O1 (single isomer, unassigned; (+)) [Example 45, (+)-1-(7-thien-3-yl-2,3-dihydro-1-benzofuran-2-yl)methanamine] | 90% | 5 nM | 2 nM |  | 
NCC1Cc2cc(F)cc(-c3cccc(Cl)c3Cl)c2O1 (racemic) [Example 211, (±)-{[7-(2,3-dichlorophenyl)-5-fluoro-2,3-dihydro-1-benzofuran-2-yl]methyl}amine] | 70% | 672 nM | 19 nM |  | 
COc1ccc(-c2cc(C(F)(F)F)cc3c2OC(CN)C3)c(OC)c1 (racemic) [Example 333, (±)-{[7-(2,4-dimethoxyphenyl)-5-(trifluoromethyl)-2,3-dihydro-1-benzofuran-2-yl]methyl}amine] | 90% | 70 nM | 13 nM |  | 
NCC1Cc2cc(C(F)(F)F)cc(-c3cc(Cl)ccc3Cl)c2O1 (racemic) [Example 337, (±)-{[7-(2,5-dichlorophenyl)-5-(trifluoromethyl)-2,3-dihydro-1-benzofuran-2-yl]methyl}amine] | 90% | 48 nM | 34 nM |  | 
CNCC1Cc2cccc(-c3ccccc3C)c2O1 (single isomer, unassigned; (-)) [Example 407, (−)-N-methyl-1-[7-(2-methylphenyl)-2,3-dihydro-1-benzofuran-2-yl]methanamine] |  | 149 nM | 8.5 nM | 60% | 
CNCC1Cc2cccc(-c3cccc(C)c3)c2O1 (racemic) [Example 414, (±)-[(N-methyl-1-[7-(3-methylphenyl)-2,3-dihydro-1-benzofuran-2-yl]methanamine] | 60% | 781 nM | 3.4 nM |  | 
Cc1cc2c(c(-c3ccccc3C)c1)OC(CN)C2 (racemic) [Example 282, (±)-{[7-(2-methylphenyl)-5-methyl-2,3-dihydro-1-benzofuran-2-yl]methyl}amine] | 90% | 43 nM | 1.7 nM |  | 
CNCC1Cc2cc(C)cc(-c3ccc(Cl)cc3)c2O1 (racemic) [Example 481, (±)-{[7-(4-chlorophenyl)-5-methyl-2,3-dihydro-1-benzofuran-2-yl]methyl}methylamine] | 80% | 75 nM | 1.5 nM |  | 
COc1ccccc1-c1cc(F)cc2c1OC(CN)C2 (racemic) [Example 195, (±)-{[5-fluoro-7-(2-methoxyphenyl)-2,3-dihydro-1-benzofuran-2-yl]methyl}amine] | 80% | 9 nM | 0.48 nM |  | 
CNCC1Cc2cc(F)cc(-c3c(Cl)cccc3Cl)c2O1 (racemic) [Example 454, (±)-{[7-(2,6-dichlorophenyl)-5-fluoro-2,3-dihydro-1-benzofuran-2-yl]methyl}methylamine] |  | 0.39 nM | 0.26 nM |  | 90%
Cc1ccccc1-c1cccc2c1OC(CN)C2 (single isomer, unassigned; (+)) [Example 48, (+)-1-[7-(2-methylphenyl)-2,3-dihydro-1-benzofuran-2-yl]methanamine] | 100% | 2.4 nM | 0.3 nM |  | 
